Where two headings read alike, the source gives them in different places.
Experiments:
[1] = Excretion in urine and faeces after topical Felpreva (Study 3); settings: for route of clearance: in vivo
Experimental: Urine and faeces were collected from cats in Study 3 for analysis of excretion of the AIs. Sampling days per cat were study days 1, 2, 7, 14, 21 and 28. Cats were kept in stainless steel cages with a litter box for the collection of total urine and faeces. The total volume of urine was determined, thereafter 2 aliquots (A + B) of ∼5 ml urine were taken, collected in clear tubes and stored in a freezer set to maintain −18 °C. Faecal samples were weighed and stored in a freezer set to maintain −18 °C.
Urine samples were prepared for analysis by mixing 100 μl urine with 900 μl solvent mixture (as described above), containing labelled tigolaner and praziquantel as internal standards, and then centrifuged. […] The lower limit of quantitation was 1 μg/l.
Faecal samples were extracted by mixing 1 or 5 g faeces with 15 or 40 ml acetonitrile containing the internal standards. The mixture was ultrasonicated and shaken by means of an overhead shaker and then centrifuged. The supernatant was transferred into a flask and the residue extracted again with 5 or 30 ml extraction solvent, shaken, and centrifuged. The extracts were combined and filled up to 20 or 100 ml with extraction solvent containing the internal standards, then filtered. […] The limit of quantitation was 10 μg/kg for each analyte.

[2] = in vivo; settings: topical or ocular
Experimental: (§7) Altogether three studies were conducted. Cats were treated with Felpreva® (containing emodepside praziquantel and tigolaner) at the recommended dose (14.5 ​mg/kg tigolaner, 3 ​mg/kg emodepside and 12 ​mg/kg praziquantel) or at 2.5× and 5× the recommended dose. For intravenous (i.v.) injection (Study 1) tigolaner, emodepside and praziquantel were formulated in tetraglycol as 8.9%, 1.85% and 7.4% solutions, respectively.
(§8) All cats were healthy and acclimatized for a minimum of 7 days. In studies 1 and 2, cats were individually housed for 8 ​h or 10–12 days following i.v. or topical administration, respectively, to avoid potential cross-contamination between animals. After this period, cats were group-housed by treatment group and sex. In Study 3, cats were socially housed in groups of 3 (same sex/same dose group) in one or more connected similar cages. The exception was when cats were separated for designated study procedures/activities associated with dosing or urine and faeces collection.
(§9) In Study 1 where i.v. administration was performed, 6 animals per treatment group were treated with a slow manual i.v. bolus using a catheter placed in the Vv. saphena medialis or Vv. saphena lateralis, and suitable 1-ml single-use syringes. Catheters were placed immediately prior to administration and removed immediately afterwards. Tigolaner (in tetraglycol, C5H9O(OC2H4)nOH, CAS no. 31692-85-0) was administered at 1.5 ​mg/kg (volume: 70–80 ​μl), emodepside (in tetraglycol) was administered at 0.3 ​mg/kg (volume 40–70 ​μl) and praziquantel (in tetraglycol) was administered at 0.2 ​mg/kg (volume: 40–60 ​μl). Low dose rates were administered intravenously to ensure tolerance of an i.v. bolus. Where treatment was administered topically, a spot-on application was manually applied at the base of the head while the hair was divided with 2 fingers. In all studies, topical doses were calculated using individual BWs and the nominal content of the three AIs. The AIs were administered based on the licensed therapeutic dose of 14.5, 3 and 12 ​mg/kg BW for tigolaner, emodepside and praziquantel, respectively. Cats were restrained for approximately a minute following administration to aid spread of the applied formulation and to prevent any possible run-off. […] Cats were closely observed for 1 ​h after dosing and at least once daily thereafter.
(§10) Blood samples of ∼0.5 ​ml (Studies 1 and 2) and 1.0 ​ml (Study 3) were collected into EDTA K2E tubes from the Vv. cephalica antebrachii or another suitable vein. Plasma was harvested following centrifugation (10 ​°C, 3220× g for 10 ​min) and subsequently stored frozen at −18 ​°C.
(§11) Analysis of all samples was performed after finalisation of the biological part of the study. The plasma samples were deproteinised by mixing 100 ​μl of plasma with 900 ​μl of a precipitation mixture of 0.040 ​g ammonium acetate in 100 ​ml water plus 0.1 ​ml formic acid and 600 ​ml acetonitrile containing the internal standards praziquantel-cyclohexyl-d11and [^13C2H6] tigolaner and subsequent centrifugation. Analysis of the AIs tigolaner, emodepside, and praziquantel was conducted by using High Performance Liquid Chromatography with an Agilent Zorbax Eclipse Plus C18 Rapid Resolution, 2.1 ​× ​50 ​mm, 1.8 ​μm column, water/formic acid (1000/0.120, v/v) ​+ ​10 ​mMol/l ammonium formate and methanol/formic acid (1000/0.120, v/v) ​+ ​10 ​mMol/l ammonium formate as mobile phase (0–0.5 ​min at 90/10 v/v, gradient to 0/100 v/v at 3–3.5 ​min and gradient to 90/10 v/v at 4–5 ​min) at 60 ​°C with a flow of 0.6 ​ml/min. Detection was performed by Tandem Mass Spectrometry (HPLC-MS/MS) using a Sciex API 5500 mass spectrometer in the positive ionisation mode.

[3] = in vivo; settings: for T1/2 (plasma half-life): Study 1, single i.v. bolus in tetraglycol, 0.2 mg/kg praziquantel (actual 1.62, 0.21, 0.21 mg/kg), n = 6 per group, HPLC-MS/MS, geometric mean (geometric CV%)
Experimental: (§1) Altogether three studies were conducted.
(§2) Each AI and treatment were evaluated separately.
(§3) All parameters were derived from individual animal data sets.
(§4) Relative data set weight was always set to 1.
The basic plasma PK characteristics of the active AIs tigolaner, emodepside and praziquantel were profiled after i.v. dosing based on at least the following parameters: Clearance (Cl), V, extrapolated concentration at time of dosing (C0), area under the curve until the last concentration above LoQ (AUClast), AUCinf, dose normalized AUClast and AUCinf (AUClast/D, AUCinf/D), mean residence time (MRT), and half-life. The statistical group mean estimates and suitable statistical parameters describing the distribution (scattering) were provided.

[4] = for AUClast/D (Geo CV%) / Cmax/D (Geo CV%): single topical Felpreva 1x, dose-normalised, geometric mean (geometric CV%)
Experimental: as §7, §8, §9, §10, §11

[5] = Plasma pharmacokinetics after single topical Felpreva at 2.5x and 5x dose multiples (Study 2); settings: for AUC(0-inf): AUCinf; for AUC(0-inf) / half-life / Tmax / AUCinf / T1/2: n = 8, geometric mean; for Cmax: n = 8, plasma, geometric mean; for half-life: T1/2, cats; for AUClast/D (Geo CV%) / Cmax/D (Geo CV%): dose-normalised, geometric mean (geometric CV%)
Experimental: as §1, §2, §3, §4

[6] = in vivo; cited from earlier work
Description: (§5) Felpreva® combines the established Profender® AIs, emodepside and praziquantel with tigolaner.

[7] = parameters: method as in Jacquot et al., 2021; settings: cats, Nexgard Combo spot-on, ref Jacquot et al., 2021; cited from earlier work
Description: as §5

[8] = test system: fleas and ticks; settings: cats, single topical dose, minimum recommended dose 14.5 mg/kg body weight, ref Cvejić et al., 2022a, b; Mencke et al., 2023; cited from earlier work
Description: (§6) Tigolaner, from the bis-pyrazole class of compounds has potent antiparasitic properties acting against γ-aminobutyric acid- (GABA-) and glutamate-gated chloride channels with significant selectivity for insect neurons over mammalian neurons ([EMA, 2022]). Tigolaner has a high potency against insects and acarids by exposure via their feeding, i.e. fleas and ticks that initiate feeding will be exposed to the AI ([Cvejić et al., 2022a], [b]; [Mencke et al., 2023]). A single tigolaner dose administered topically at the minimum recommended dose of 14.5 mg/kg body weight (BW) on cats provides 13 we ...

[9] = test system: fleas; settings: cats, topical, ref EMA, 2022; Mencke et al., 2023; cited from earlier work
Description: as §6

[10] = Domestic Shorthair, in vivo, iv, 0.2 mg/kg
[11] = 2.5x dose relative to 1x dose, topical Felpreva, cats
[12] = 5x dose relative to 1x dose, topical Felpreva, cats
[13] = cats, single topical Felpreva 2.5x
[14] = cats, single topical Felpreva 5x
[15] = topical Felpreva, dose rates from 1x to 2.5x and 5x, cats, Cmax/D and AUClast/D
[16] = cats, 1.5 mg/kg tigolaner, 0.2 mg/kg emodepside
[17] = cats, single i.v. bolus, 1.5 mg/kg tigolaner, 0.2 mg/kg emodepside, 0.2 mg/kg praziquantel, n = 6, geometric mean (geometric CV%)
[18] = cats, Study 2, single topical Felpreva 2.5x, 0.37 ml/kg
[19] = cats, Study 2, single topical Felpreva 5x, 0.74 ml/kg

In the case of CC(C)C[C@H]1C(=O)O[C@H](Cc2ccc(N3CCOCC3)cc2)C(=O)N(C)[C@@H](CC(C)C)C(=O)O[C@H](C)C(=O)N(C)[C@@H](CC(C)C)C(=O)O[C@H](Cc2ccc(N3CCOCC3)cc2)C(=O)N(C)[C@@H](CC(C)C)C(=O)O[C@H](C)C(=O)N1C [Emodepside, emodepside], the route of clearance [1] was “mainly cleared via the faeces”, the Tmax ([2]; Domestic Shorthair (DSH)) was 36 h and the AUC(0-inf) ([2]; Domestic Shorthair) was 20600 ng·h/mL. For the same compound, the AUC(0-t) ([2]; Domestic Shorthair) was 20500 ng·h/mL, the Cmax ([2]; Domestic Shorthair) was 44.3 ng/mL and the Tmax ([2]; Domestic Shorthair) was 36.9 h. It also gave a bioavailability ([2]; Domestic Shorthair) of 90%, a half-life ([2]; Domestic Shorthair) of 348 h and an AUC(0-inf) [3, 10] of 1600 ng·h/mL. The AUC(0-t) [3, 10] was 1500 ng·h/mL, the half-life [3, 10] was 202 h and the Vd ([3]; in vivo, iv, 0.2 mg/kg) was 38.2 L/kg. For the same compound, the clearance ([3]; in vivo, iv, 0.2 mg/kg) was 2.18 mL/min/kg, the “AUClast/D (Geo CV%)” value ([4]; cats) was 6.79 (38.7) h∗kg∗μg/l/μg and the “Cmax/D (Geo CV%)” value ([4]; cats) was 0.015 (61.0) kg∗μg/l/μg. The “Ratio AUClast/D” value [5, 11] was 0.64, the “Ratio Cmax/D” value [5, 11] was 0.60 and the “Ratio AUClast/D” value [5, 12] was 0.66. For the same compound, the “Ratio Cmax/D” value [5, 12] was 0.53, the AUC(0-inf) ([5]; European Shorthair (ESH), in vivo, topical or ocular, cats, Study 2, single topical Felpreva 2.5x, 0.37 ml/kg) was 36100 ng·h/mL and the AUC(0-inf) ([5]; European Shorthair (ESH), in vivo, topical or ocular, cats, Study 2, single topical Felpreva 5x, 0.74 ml/kg) was 62500 ng·h/mL. It also gave a Cmax ([5]; European Shorthair (ESH), in vivo, topical or ocular, Cmax, cats, Study 2, single topical Felpreva 5x, 0.74 ml/kg (72.5 mg/kg tigolaner, 15 mg/kg emodepside, 60 mg/kg praziquantel)) of 106 ng/mL, a half-life ([5]; European Shorthair (ESH), in vivo, topical or ocular, Study 2, single topical Felpreva 2.5x, 0.37 ml/kg) of 329 h and a half-life ([5]; European Shorthair (ESH), in vivo, topical or ocular, Study 2, single topical Felpreva 5x, 0.74 ml/kg) of 328 h. For the same compound, the Tmax ([5]; European Shorthair (ESH), in vivo, topical or ocular, Tmax, cats, Study 2, single topical Felpreva 2.5x, 0.37 ml/kg) was 47.8 h, the Tmax ([5]; European Shorthair (ESH), in vivo, topical or ocular, Tmax, cats, Study 2, single topical Felpreva 5x, 0.74 ml/kg) was 61.9 h and the “AUClast/D (Geo CV%)” value [5, 13] was 4.32 (44.2) h∗kg∗μg/l/μg. The “Cmax/D (Geo CV%)” value [5, 13] was 0.009 (71.4) kg∗μg/l/μg, the “AUClast/D (Geo CV%)” value [5, 14] was 4.5 (36.5) h∗kg∗μg/l/μg and the “Cmax/D (Geo CV%)” value [5, 14] was 0.008 (35.7) kg∗μg/l/μg. For the same compound, the “dose proportionality of plasma PK (rate and extent)” value (“dose proportionality of plasma PK” below) [5, 15] was “less than proportional increase”.

With O=C(C1CCCCC1)N1CC(=O)N2CCc3ccccc3C2C1 (stereo not shown) [Praziquantel, praziquantel] the route of clearance [1] was “equally cleared via the faeces and via the urine for males”, the “T1/2 (plasma half-life)” value [3, 16] was 1.8 (94.8) h and the “Cl_pred (systemic clearance)” value ([3]; in vivo) was 1.861 (32.2) l/h/kg. The “Vz_pred (volume of distribution)” value ([3]; in vivo) was 4.95 (142.2) l/kg, the “AUClast/D (Geo CV%)” value ([4]; cats) was 0.30 (19.9) h∗kg∗μg/l/μg and the “Cmax/D (Geo CV%)” value ([4]; cats) was 0.004 (57.2) kg∗μg/l/μg. The “AUCinf (total plasma exposure)” value ([4]; in vivo) was 3.7 (19.6) mg∗h/l, the AUClast ([4]; in vivo) was 3.6 (19.7) mg∗h/l and the Tmax ([4]; in vivo) was 4.8 (107.7) h. For the same compound, the “absolute bioavailability after topical application” value ([4]; in vivo) was 48%, the “bioavailability after topical application, first 24 h” value ([4]; in vivo) was 6% and the plasma elimination half-life ([4]; in vivo) was 240 h. The Tmax [6] was 18.7 ± 47 h, the maximum serum concentration [6] was 61.3 ± 44.1 µg/L and the serum half-life [6] was 98.4 ± 36 h. The serum half-life [7] was 103 h, the “AUClast/D (Geo CV%)” value [5, 13] was 0.19 (47.7) h∗kg∗μg/l/μg and the “Cmax/D (Geo CV%)” value [5, 13] was 0.003 (51.7) kg∗μg/l/μg. For the same compound, the “AUClast/D (Geo CV%)” value [5, 14] was 0.25 (22.2) h∗kg∗μg/l/μg, the “Cmax/D (Geo CV%)” value [5, 14] was 0.003 (39.8) kg∗μg/l/μg and the “Ratio Cmax/D” value ([5]; in vivo) was 0.75. For the same compound, the “dose proportionality of plasma PK” value ([5]; in vivo) was “less than proportional increase”.

For Cn1nc(C(F)(F)C(F)(F)F)c(C(F)(F)F)c1-n1cc(-c2ccc(Cl)c(C(=O)NC3(C#N)CC3)c2)cn1 [Tigolaner, tigolaner], the “duration of flea and tick control” value [8] is listed as 13 weeks, the “onset of efficacy, fleas already on the cat prior to treatment” value [9] is listed as no more than 12 h and the “onset of efficacy, new flea infestation, after two months” value [9] is listed as no more than 24 h. The “onset of efficacy, new flea infestation, for two months” value [9] was no more than 8 h, the “extent of metabolism (conclusion from excretion)” value ([1]; cats, Study 3, topical administration, 28 days) was “poorly metabolized” and the “T1/2 (plasma half-life)” value [3, 16] was 515.4 (54.2) h. The AUCinf [3, 17] was 300.1 (29.1) mg∗h/l, the AUClast [3, 17] was 298 (29.5) mg∗h/l and the “Cl_pred (systemic clearance)” value [3, 17] was 0.005 (31.7) l/h/kg. For the same compound, the “Vz_pred (volume of distribution)” value [3, 17] was 4.00 (56.5) l/kg, the “absolute bioavailability after topical application” value ([4]; cats, Study 1, Fabs = AUCinf/D spot-on / AUCinf/D i.v., group geometric means) was 57% and the “AUClast/D (Geo CV%)” value ([4]; cats) was 103.16 (32.9) h∗kg∗μg/l/μg. For the same compound, the “Cmax/D (Geo CV%)” value ([4]; cats) was 0.092 (37.9) kg∗μg/l/μg, the “Ratio AUClast/D” value [5, 11] was 1.05 and the “Ratio Cmax/D” value [5, 11] was 0.91. For the same compound, the “Ratio AUClast/D” value [5, 12] was 0.76, the “Ratio Cmax/D” value [5, 12] was 0.58 and the Cmax ([5]; cats, Study 2, single topical Felpreva 2.5x, 0.37 ml/kg (36.25 mg/kg tigolaner, 7.5 mg/kg emodepside, 30 mg/kg praziquantel)) was 2496.9 ng/mL. For the same compound, the AUCinf [5, 18] was 3308 mg∗h/l, the T1/2 [5, 18] was 569.9 h and the Tmax [5, 18] was 440.4 h. The Cmax ([5]; cats, Study 2, single topical Felpreva 5x, 0.74 ml/kg (72.5 mg/kg tigolaner, 15 mg/kg emodepside, 60 mg/kg praziquantel)) was 3574.2 ng/mL, the AUCinf [5, 19] was 5393 mg∗h/l and the T1/2 [5, 19] was 563.2 h. For the same compound, the “AUClast/D (Geo CV%)” value [5, 13] was 108.66 (142.5) h∗kg∗μg/l/μg, the “Cmax/D (Geo CV%)” value [5, 13] was 0.084 (137.8) kg∗μg/l/μg and the “AUClast/D (Geo CV%)” value [5, 14] was 78.5 (30.7) h∗kg∗μg/l/μg. For the same compound, the “Cmax/D (Geo CV%)” value [5, 14] was 0.053 (34.0) kg∗μg/l/μg and the “dose proportionality of plasma PK” value [5, 15] was “less than proportional increase”.

From article PMC10344656, “Plasma pharmacokinetics of tigolaner, emodepside, and praziquantel following topical administration of a combination product (Felpreva®) and of intravenous administration of the individual active ingredients in cats” (Current Research in Parasitology & Vector-borne Diseases, 2023)
